Here are results for 88 molecules from a melting point compilation (Tetko et al.; mined from patent text by program, amines drawn as free bases though some values may be those of a salt).

Each structure is given as a SMILES string.

With `Cn1c(=O)cc(-c2cccc(Cl)c2)c2cc(C(=O)c3ccc([N+](=O)[O-])cc3)ccc21`, the melting point (as a rule, the temperature of the solid-liquid transition) was determined as 174 °C.
The result for `O=c1[nH]c2cc(Cl)ccc2c(O)c1-c1ccc2c(c1)OCO2` reads greater than 350 °C; that for `CC(=O)N1CCC(OCCOc2ccc(C(N)=O)cc2)CC1`, 154 to 155 °C.
With `CCCCCCCCCCCCNC(=O)c1cc(-c2cccc(C(F)(F)F)c2)c(OCCO)c(-c2cccc(C(F)(F)F)c2)c1`, the melting point was 154 to 158 °C.
With `Cc1nc(C)c(Cl)c(NCc2ccc(O)c(OC(F)F)c2)n1`, the melting point lay in the range of 167 to 168 °C.
`O=C1c2ccc([N+](=O)[O-])cc2C(=O)N1CCc1ccccc1` came in with a melting point of 142 to 143 °C.
Take `CCn1c(N)c(C(=O)NC)c(=O)c2ccc(Cl)nc21`: the melting point was in the range of 283 to 286 °C.
As to `Cc1ccc(-c2ccc3c(c2)C=C(C(=O)Nc2ccc(CN4CCN(C(c5ccccc5)c5ccccc5)CC4)cc2)CC3)cc1`, the melting point lay in the range of 217 to 218 °C.
The result for `CNC(=O)c1c(NC(=O)c2cc(C(F)(F)F)nn2-c2ncccc2Cl)ccc2cn[nH]c12` reads 190 to 192 °C; that for `CCCCCC(=O)NS(=O)(=O)/C=C/c1cc(OCCCC)nn1Cc1ccc(Cl)cc1Cl`, 117 to 119 °C; that for `O=C(/C=C/C=C/c1ccccc1)NCCCOc1ccc(CC(=O)NO)cc1`, 198 to 201 °C.
`COCCCCC(=O)c1ccc([N+](=O)[O-])c(Cl)c1`: the melting point lay in the range of 54.5 to 56 °C.
To `COC(=O)/C(N)=C/C(=O)/C=C/c1ccc(Cl)cc1` belongs 112 to 113 °C; to `CCCOc1cc(CCCOc2nn(Cc3ccccc3)cc2CC(=O)O)n(Cc2ccc(Cl)cc2Cl)n1`, 132 to 134 °C.
With `O=C1CC(=O)N(c2ccccc2)c2cc(Cl)ccc2N1Cc1ccccc1`, the melting point is 173 to 175 °C.
In turn, `COc1cc(N2CCC(=O)CC2)ncn1` registered a melting point of 111 to 114 °C.
`CC(C)(C)c1ccc(NC(Nc2ccc(C(C)(C)C)cc2)Nc2ccc(C(C)(C)C)cc2)cc1` came in with a melting point of 157 to 158 °C.
`O=C(Nc1ccc(OCc2ccncc2)c2ccccc12)c1cc(F)cc(N2CCCCC2)c1`: the melting point is 69 to 71 °C.
Regarding `COC(=S)Nc1ccc(OCc2nc3ccccc3s2)cc1`, the melting point lay in the range of 160 to 162 °C.
`CCOC(=O)Cc1nc(-c2ccc(Cl)cc2)oc1Sc1ccccc1` registered a melting point of 109 to 110 °C.
Regarding `CC(C)CCn1c(=O)c2c(N3CCN(C)CC3)cc(Cl)cc2n(Cc2ccccc2)c1=O`, the melting point fell in the range of 62 to 68 °C.
Consider `CN(O)C(=O)C=Cc1ccc2ccccc2c1`, for which the melting point was in the range of 138 to 140 °C.
In the case of `CC(=O)C1CCC2C3CCC4CC(O)C(F)CC4(C)C3C(=O)CC12C` (stereo not drawn), the melting point was 174 to 178 °C.
To `COCCN(CCOC)c1ccc(P(=O)(C(=O)c2c(C)cc(C)cc2C)C(=O)c2c(C)cc(C)cc2C)cc1` belongs 103 to 106 °C.
The result for `COC(=O)c1nc(OC)c2ccccc2n1` reads 129 to 130 °C; that for `COc1cc(-c2cnc3[nH]cc(C(=O)CC(C)C)c3n2)cc(OC)c1OC`, 210 to 211 °C; that for `Cc1ccc2c(c1)-c1ncnn1CC(=O)N2`, 206 to 208 °C.
`N#Cc1c(Cl)c2ccccc2[nH]c1=O`: the melting point was greater than 250 °C.
`CN1CCCNC(=O)C1` came in with a melting point of 91 °C.
To `CCOC(OCC)C(N)=O` belongs 47 to 51 °C; to `COc1cc(N)c(Cl)cc1C(=O)NCC1CCN(CCCCCCNC(=O)c2ccccc2)CC1`, 159 to 162 °C; to `CC(=O)c1ccc(OCCCN2CCC(c3nsc4cc(F)ccc34)CC2)c(O)c1`, 135 to 137 °C.
For `C[C@@H]1Cc2c(N3CCN(C)CC3)c(F)cc3c(=O)c(C(=O)O)cn1c23`, the melting point is 249 to 252 °C.
To `CN1COC(CC23CCC(c4ccccc42)c2ccccc23)C1` (stereo not drawn) belongs 106 to 109 °C.
To `COc1nc2cc(Br)c3c(c2nc1OC)CCN(C)C3` belongs 162 °C; to `CCCCCCNC(=O)Oc1ccc(Oc2ccccc2)cc1`, 57 to 59 °C; to `FC(F)(F)c1cccc(-c2ccc3nncn3n2)c1`, 140 to 143 °C.
To `O=C(CS)N1CCSC1COc1ccccc1O` (stereo not drawn) belongs 92 to 93 °C; to `COc1ccc(C2CNC(=O)C2)cc1C1CCCC1` (stereo not drawn), 139 °C.
Consider `O=C(CCc1ccccc1)N[C@H](Cc1ccc(C(F)(F)F)cc1)[C@@H](O)c1ccccc1` (racemic), for which the melting point lay within 147 to 148 °C.
The molecule `COc1ccc(N2CCN(c3c(C)c(C)c4c(c3C)C(N3CCCC3)C(C)(C)O4)CC2)cc1` (stereo not drawn) returned a melting point of 124 to 126 °C.
The result for `CCOP(=S)(OCC)N1C(=O)c2ccccc2C1=O` reads 81 to 83 °C; that for `Clc1ccc(CCC(Cn2ccnc2)OCc2ccc(Cl)c(Cl)c2)cc1` (stereo not drawn), 87.5 to 89.5 °C; that for `O=[N+]([O-])c1cnc2ccc(-c3ccccc3)cc2c1Cl`, 144 to 145 °C.
The result for `COc1ccc(Nc2nc(Cl)c3sccc3n2)c(C)c1` reads 151 to 153 °C; that for `N#CC=Cc1ccc(-c2ccccc2)cc1`, 43.7 °C; that for `COc1ccccc1Nc1cc(C(=O)Nc2ccccc2)ccc1OC`, 155 to 156 °C.
`COC(=O)C=CC=CCS(=O)c1ccccc1` (stereo not drawn) came in with a melting point of 82 to 84 °C.
The result for `CCOC(=O)C(C)(C)Oc1ccc(OCCc2nc(-c3ccc(Br)cc3)oc2C)cc1` reads 78 to 79 °C; that for `CCOC(=O)N1CCC(c2[nH]nc3c2C(=O)c2c(NC(=O)NN4CCOCC4)cccc2-3)CC1`, 206 to 207 °C.
Turning to `CCOC(=O)C1=CC2(CCC1S(=O)(=O)Nc1ccc(F)cc1Cl)OC1COCC1O2` (stereo not drawn), the melting point was in the range of 227 to 228 °C.
`C#Cc1ccc(C(=O)NCC(N)C(c2ccccc2)(c2ccccc2)c2ccccc2)cc1` (stereo not drawn): the melting point lay in the range of 50 to 51 °C.
To `CCCCCS(=O)(=O)NC(=O)CCc1ccc(OCCCOCCOC)cc1Oc1ncc(C(F)(F)F)cc1Cl` belongs 95 to 95.8 °C.
In turn, `COC(=O)ONC(=N)Nc1ccc(C(=O)OC(C)(C)C)cc1` had a melting point of 122 to 126 °C.
Turning to `CNC(c1cccc(OCOC)c1)C1CCCCC1O` (stereo not drawn), the melting point is 87 to 89 °C.
In turn, `Cc1cc(Oc2c(F)cc(C(F)(F)F)cc2Cl)n[nH]1` registered a melting point of 116 to 117 °C.
Turning to `CC(=O)OCc1cncc(COc2cc3c(=O)c(Cc4cccnc4)cn4c5ccc(Br)cc5c(c2)c34)c1`, the melting point was 83.5 to 84.5 °C.
To `CC(O)(c1ccc(Cl)cc1)C1CCNCC1` (stereo not drawn) belongs 178 to 180 °C; to `O=C(CCCN1CCN2c3ccccc3NC(=O)C2C1)c1ccc(F)cc1` (stereo not drawn), 145 to 150 °C; to `COc1cc(NC(=O)Nc2cccc3c2C2CC(=O)CCN2C3=O)nc2ccccc12` (stereo not drawn), 223 to 225 °C.
In the case of `Nc1ccccc1NC(=O)c1ccc(CNC(=O)c2[nH]c(-c3ccoc3)cc2-c2ccc(O)cc2)cc1`, the melting point fell in the range of 70 to 72 °C.
The result for `CC(C)(C)c1ccc(N2C[C@@H](COS(C)(=O)=O)CC2=O)cc1` reads 108 to 109 °C; that for `CCCC#Cc1cc(Cl)cc2c1OC(C(F)(F)F)C(C(=O)O)=C2` (stereo not drawn), 168 to 171 °C.
To `O=C(c1ccc(Cl)cc1)c1ccc(Cc2c(Cl)cc(N3N=CCNC3=O)cc2Cl)cc1` belongs 205 to 206 °C; to `CCCc1cc(C)c(OCCO)c(C(Nc2ccc(C(=N)N)cc2)C(=O)O)c1` (racemic), 230 °C; to `N#Cc1ccc(Oc2cccc(F)c2)cc1`, 67 to 69 °C.
To `COc1cc2ncc(C#N)c(Nc3ccc(F)c(Cl)c3)c2cc1NC(=O)C=CCN1CCC(N2CCCCC2)CC1` belongs 140 to 144 °C; to `COc1cccc(CCC(=O)O)c1C`, 143 to 147 °C.
For `O=C(Nc1ccc2ccc(Oc3ccc(Cl)cc3)nc2n1)c1ccccc1`, the melting point stood at 148 °C.
`O=C(CCC(=O)N1CCC(c2ccc(Cl)cc2)CC1)c1ccc2c(c1)CCN(CC1CCCCC1)CC2` had a melting point of 140 to 141 °C.
To `Brc1cnc(Sc2ncccn2)nc1` belongs 178 to 180 °C.
In turn, `COC(=O)c1cccc(-c2nc(COc3ccc(C=O)cc3)c(C)o2)c1` yielded a melting point of 103 to 104 °C.
On to `Cc1c(Cl)cccc1Nc1ncccc1[N+](=O)[O-]`, for which the melting point lay within 134 to 135 °C.
To `CC#CCOc1ccc(S(=O)(=O)C(C(=O)NO)C2CCN(Cc3ccc(OC)cc3)CC2)cc1` (stereo not drawn) belongs 138 °C.
To `CC(=O)N(C)N(C)c1ccnc2c(NC(=O)c3c(Cl)cccc3Cl)cccc12` belongs 243 to 244 °C; to `N#CCCn1nc(-c2ccc(OCc3ccccc3)cc2)oc1=O`, 136 °C.
Molecule `c1cnc2ccc(Cn3nnc4ccc(-c5ccc(N6CCOCC6)nc5)nc43)cc2c1` had a melting point of 183 to 185 °C.
For `ClCc1cccc2c(-c3ccccc3)nccc12`, the melting point is 104 °C.
`O=C(NC(Cc1ccc(OCc2ccc(F)cc2)cc1)C(=O)O)c1cn2ccc(-c3ccc(Cl)cc3)cc2n1` (stereo not drawn) yielded a melting point of 255 to 257 °C.
`COc1ccc(C(Cc2cnccn2)c2ccccc2)cc1OC1CCCC1` (stereo not drawn): the melting point lay within 71.5 to 72 °C.
The result for `Cc1nc(C)c(C(C)(O)c2ccccc2)o1` (stereo not drawn) reads 94.5 to 96 °C; that for `CC(=O)C(=Cc1ccc(C(F)(F)F)cc1)C(C)=O`, 46 to 48 °C.
The result for `Cn1cccc1C(=O)Nc1cccc(/C=C/C(=O)O)c1` reads 202 to 204 °C; that for `COc1ccc(C=CC(=O)c2ccccc2Br)c(OC)c1`, 91.3 to 91.8 °C.
The result for `CN(c1cccc2cc(C3=NCC(CN4CCOCC4)S3)[nH]c12)S(=O)(=O)c1cccnc1` (stereo not drawn) reads 234 to 236 °C; that for `CCN(CC)CCCNc1ccc(-c2ccnc(Nc3cc(OC)c(OC)c(OC)c3)n2)cn1`, 67 °C; that for `CNCC1Cc2cc(C)cc(-c3cccc(OC)c3OC)c2O1` (stereo not drawn), 85 to 89 °C.
For `Cc1noc(NS(=O)(=O)c2ccccc2-c2ccc(-c3ncco3)cc2CN2CCN(C(C)C)C2=O)c1C`, the melting point was in the range of 105 to 110 °C.
